In PubChem BioAssay (NCI):
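48-hour exposure; five concentrations; linearly interpolated endpoints. GI50 = concentration required for 50% inhibition of growth. The concentration for full growth arrest is given as TGI.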

Tests used:
Experiment in all cases: inhibition of tumour cell growth, NCI panel, 48 h
SW-620 colon = system: SW-620 colon
SF-539 CNS = system: SF-539 CNS
COLO 205 colon = system: COLO 205 colon
T-47D breast = system: T-47D breast
OVCAR-8 ovarian = system: OVCAR-8 ovarian
SK-MEL-28 melanoma = system: SK-MEL-28 melanoma
BT-549 breast = system: BT-549 breast
NCI-H226 lung = system: NCI-H226 lung
NCI-H460 lung = system: NCI-H460 lung
SN12C renal = system: SN12C renal
NCI-H23 lung = system: NCI-H23 lung
UACC-257 melanoma = system: UACC-257 melanoma
HT29 colon = system: HT29 colon
TK-10 renal = system: TK-10 renal
MDA-MB-231 breast = system: MDA-MB-231 breast
M14 melanoma = system: M14 melanoma
MOLT-4 leukemia = system: MOLT-4 leukemia
HCT-116 colon = system: HCT-116 colon
K-562 leukemia = system: K-562 leukemia
RPMI-8226 leukemia = system: RPMI-8226 leukemia
SF-295 CNS = system: SF-295 CNS
A498 renal = system: A498 renal
SR leukemia = system: SR leukemia
SNB-75 CNS = system: SNB-75 CNS
SK-MEL-5 melanoma = system: SK-MEL-5 melanoma
HCC-2998 colon = system: HCC-2998 colon
OVCAR-5 ovarian = system: OVCAR-5 ovarian
NCI-H522 lung = system: NCI-H522 lung
UACC-62 melanoma = system: UACC-62 melanoma
U251 CNS = system: U251 CNS
MALME-3M melanoma = system: MALME-3M melanoma
UO-31 renal = system: UO-31 renal
CAKI-1 renal = system: CAKI-1 renal
SK-MEL-2 melanoma = system: SK-MEL-2 melanoma
HL-60(TB) leukemia = system: HL-60(TB) leukemia
OVCAR-3 ovarian = system: OVCAR-3 ovarian
MCF7 breast = system: MCF7 breast
786-0 renal = system: 786-0 renal
RXF 393 renal = system: RXF 393 renal
PC-3 prostate = system: PC-3 prostate
HS 578T breast = system: HS 578T breast
MDA-MB-435 = system: MDA-MB-435
DU-145 prostate = system: DU-145 prostate
SNB-19 CNS = system: SNB-19 CNS
HOP-62 NSCLC = system: HOP-62 NSCLC
CCRF-CEM leukemia = system: CCRF-CEM leukemia
SF-268 CNS = system: SF-268 CNS
SK-OV-3 ovarian = system: SK-OV-3 ovarian
HOP-92 NSCLC = system: HOP-92 NSCLC
IGROV1 ovarian = system: IGROV1 ovarian
NCI/ADR-RES ovarian = system: NCI/ADR-RES ovarian
OVCAR-4 ovarian = system: OVCAR-4 ovarian
KM12 colon = system: KM12 colon
A549 NSCLC = system: A549 NSCLC
HCT-15 colon = system: HCT-15 colon
ACHN renal = system: ACHN renal
LOX IMVI melanoma = system: LOX IMVI melanoma

With O=C1NC(=O)/C(=C/c2ccc3ncccc3c2)S1 the GI50 (SW-620 colon) was greater than 25 µM, the TGI (SW-620 colon) was greater than 25 µM and the GI50 (SF-539 CNS) was greater than 25 µM. The TGI (SF-539 CNS) was greater than 25 µM, the GI50 (COLO 205 colon) was greater than 25 µM and the TGI (COLO 205 colon) was greater than 25 µM. It also gave a GI50 (T-47D breast) of 1.23 µM, a TGI (T-47D breast) greater than 22.6 µM and a GI50 (OVCAR-8 ovarian) greater than 25 µM. The TGI (OVCAR-8 ovarian) was greater than 25 µM, the GI50 (SK-MEL-28 melanoma) was 17.2 µM and the TGI (SK-MEL-28 melanoma) was greater than 25 µM. It also gave a GI50 (BT-549 breast) greater than 25 µM, a TGI (BT-549 breast) greater than 25 µM and a GI50 (NCI-H226 lung) greater than 25 µM. For the same molecule, the TGI (NCI-H226 lung) was greater than 25 µM, the GI50 (NCI-H460 lung) was 12.6 µM and the TGI (NCI-H460 lung) was greater than 25 µM. It also gave a GI50 (SN12C renal) greater than 25 µM, a TGI (SN12C renal) greater than 25 µM and a GI50 (NCI-H23 lung) greater than 25 µM. It also gave a TGI (NCI-H23 lung) greater than 25 µM, a GI50 (UACC-257 melanoma) greater than 14.5 µM and a TGI (UACC-257 melanoma) greater than 25 µM. It also gave a GI50 (HT29 colon) of 19.9 µM, a TGI (HT29 colon) greater than 25 µM and a GI50 (TK-10 renal) of 6 µM. The TGI (TK-10 renal) was greater than 25 µM, the GI50 (MDA-MB-231 breast) was greater than 25 µM and the TGI (MDA-MB-231 breast) was greater than 25 µM. It also gave a GI50 (M14 melanoma) of 13.7 µM, a TGI (M14 melanoma) greater than 25 µM and a GI50 (MOLT-4 leukemia) greater than 25 µM. For the same molecule, the TGI (MOLT-4 leukemia) was greater than 25 µM, the GI50 (HCT-116 colon) was greater than 25 µM and the TGI (HCT-116 colon) was greater than 25 µM. For the same molecule, the GI50 (K-562 leukemia) was greater than 25 µM, the TGI (K-562 leukemia) was greater than 25 µM and the GI50 (RPMI-8226 leukemia) was greater than 25 µM. For the same molecule, the TGI (RPMI-8226 leukemia) was greater than 25 µM, the GI50 (SF-295 CNS) was greater than 25 µM and the TGI (SF-295 CNS) was greater than 25 µM. For the same molecule, the GI50 (A498 renal) was 0.307 µM, the TGI (A498 renal) was 2.2 µM and the GI50 (SR leukemia) was greater than 25 µM. The TGI (SR leukemia) was greater than 25 µM, the GI50 (SNB-75 CNS) was 1.4 µM and the TGI (SNB-75 CNS) was greater than 25 µM. It also gave a GI50 (SK-MEL-5 melanoma) greater than 25 µM, a TGI (SK-MEL-5 melanoma) greater than 25 µM and a GI50 (HCC-2998 colon) greater than 25 µM. It also gave a TGI (HCC-2998 colon) greater than 25 µM, a GI50 (OVCAR-5 ovarian) of 8.3 µM and a TGI (OVCAR-5 ovarian) greater than 25 µM. It also gave a GI50 (NCI-H522 lung) greater than 20.3 µM, a TGI (NCI-H522 lung) greater than 25 µM and a GI50 (UACC-62 melanoma) of 16.3 µM. For the same molecule, the TGI (UACC-62 melanoma) was greater than 25 µM, the GI50 (U251 CNS) was greater than 25 µM and the TGI (U251 CNS) was greater than 25 µM. The GI50 (MALME-3M melanoma) was 7.11 µM, the TGI (MALME-3M melanoma) was greater than 20.7 µM and the GI50 (UO-31 renal) was 3.51 µM. It also gave a TGI (UO-31 renal) greater than 25 µM, a GI50 (CAKI-1 renal) greater than 25 µM and a TGI (CAKI-1 renal) greater than 25 µM. For the same molecule, the GI50 (SK-MEL-2 melanoma) was greater than 25 µM, the TGI (SK-MEL-2 melanoma) was greater than 25 µM and the GI50 (HL-60(TB) leukemia) was 8.14 µM. For the same molecule, the TGI (HL-60(TB) leukemia) was greater than 25 µM, the GI50 (OVCAR-3 ovarian) was greater than 25 µM and the TGI (OVCAR-3 ovarian) was greater than 25 µM. The GI50 (MCF7 breast) was 2.02 µM, the TGI (MCF7 breast) was greater than 25 µM and the GI50 (786-0 renal) was greater than 25 µM. It also gave a TGI (786-0 renal) greater than 25 µM, a GI50 (RXF 393 renal) greater than 23.2 µM and a TGI (RXF 393 renal) greater than 25 µM. The GI50 (PC-3 prostate) was 17.9 µM, the TGI (PC-3 prostate) was greater than 25 µM and the GI50 (HS 578T breast) was 1.96 µM. The TGI (HS 578T breast) was greater than 18.7 µM, the GI50 (MDA-MB-435) was greater than 25 µM and the TGI (MDA-MB-435) was greater than 25 µM. It also gave a GI50 (DU-145 prostate) greater than 25 µM, a TGI (DU-145 prostate) greater than 25 µM and a GI50 (SNB-19 CNS) greater than 25 µM. For the same molecule, the TGI (SNB-19 CNS) was greater than 25 µM, the GI50 (HOP-62 NSCLC) was greater than 25 µM and the TGI (HOP-62 NSCLC) was greater than 25 µM. It also gave a GI50 (CCRF-CEM leukemia) greater than 25 µM, a TGI (CCRF-CEM leukemia) greater than 25 µM and a GI50 (SF-268 CNS) greater than 25 µM. For the same molecule, the TGI (SF-268 CNS) was greater than 25 µM, the GI50 (SK-OV-3 ovarian) was 6.08 µM and the TGI (SK-OV-3 ovarian) was greater than 25 µM. For the same molecule, the GI50 (HOP-92 NSCLC) was 0.749 µM, the TGI (HOP-92 NSCLC) was greater than 22.8 µM and the GI50 (IGROV1 ovarian) was greater than 6.1 µM. For the same molecule, the TGI (IGROV1 ovarian) was greater than 21.7 µM, the GI50 (NCI/ADR-RES ovarian) was greater than 25 µM and the TGI (NCI/ADR-RES ovarian) was greater than 25 µM. It also gave a GI50 (OVCAR-4 ovarian) greater than 25 µM, a TGI (OVCAR-4 ovarian) greater than 25 µM and a GI50 (KM12 colon) greater than 25 µM. It also gave a TGI (KM12 colon) greater than 25 µM, a GI50 (A549 NSCLC) greater than 23.1 µM and a TGI (A549 NSCLC) greater than 25 µM. For the same molecule, the GI50 (HCT-15 colon) was greater than 21.1 µM, the TGI (HCT-15 colon) was greater than 25 µM and the GI50 (ACHN renal) was greater than 25 µM. For the same molecule, the TGI (ACHN renal) was greater than 25 µM, the GI50 (LOX IMVI melanoma) was 13.7 µM and the TGI (LOX IMVI melanoma) was greater than 25 µM.
